{"source": "patent US20080166323A1", "about": "“Activators of Hexosamine Biosynthesis as Inhibitors of Injury Induced by Ischemia or Hermorrhagic Shock” (UAB RESEARCH FOUNDATION, priority 2004, published 2008)", "tested_on": "rat model of trauma-hemorrhage and resuscitation", "test": "soft tissue trauma-hemorrhage (T-H) and resuscitation, Example 1 (glucosamine before hemorrhage and during resuscitation)", "assay_type": "in vivo", "procedure": "The following experiments were conducted using a model of soft tissue trauma-hemorrhage (T-H) as described in Ba, et al., Crit. Care Med (2000) 28(8):2837-2842; Chaudry, et al., Can J Physiol Pharmacol (1975) 53(5):859-865; Ma, et al., Am J Physiol Gastrointest Liver Physiol (2003) 284(1):G107-G115; and Harkema and Chaudry, Crit. Care Med (1992) 20(2):263-275. Male rats were fasted for 16 h and divided into three groups: (1) sham (trauma only); (2) T-H (trauma with subsequent hemorrhage and resuscitation); and (3) G-T-H (trauma with subsequent hemorrhage and resuscitation in the presence of glucosamine). All groups underwent a 5 cm ventral midline laparotomy to induce soft-tissue trauma and were cannulated in both femoral arteries and the right femoral vein. The T-H and G-T-H groups received an infusion of 3 mls over 30 minutes of Ringer's lactate (RL) containing, in the G-T-H group only, 10 mM glucosamine. These two groups were then bled to a mean arterial pressure of 40 mm Hg within 10 minutes and maintained at that pressure for 80 minutes. The T-H group was then infused with 1 ml RL over 10 minutes, while in the G-T-H group the infusate contained an iso-osmotic solution of 75 mM glucosamine (pH 7.4) in 50% RL. The two groups were then resuscitated with four times the maximum hemorrhage volume over a period of 60 minutes with RL (T-H) or RL containing 10 mM glucosamine (G-T-H). Sham-operated animals underwent the same surgical procedure but were neither bled nor resuscitated. Two hours post-resuscitation, a catheter was inserted into the left ventricle via the right carotid artery. Organ blood flows were determined using radioactive microspheres. Cardiac function and blood parameters were also assessed. The data for these experiments are shown in Tables 1 and 2 (values are mean ±standard error of the mean).", "key": {"[1]": {"details": "rat, G-T-H (n = 3), 2 h after T-H, glucosamine before hemorrhage and in resuscitation, mean ± SEM"}, "[2]": {"details": "rat, G-T-H, 2 h after T-H and resuscitation, Example 1, mean ± SEM"}}}
{"smiles": "N[C@H]1C(O)O[C@H](CO)[C@@H](O)[C@@H]1O", "note": "(some centres unmarked) [glucosamine]", "values": [{"measurement": "Hepatic blood flow, change", "setting": "G-T-H group, Example 1", "value": "improved"}, {"measurement": "Total peripheral resistance, change", "setting": "G-T-H group, Example 1", "value": "decreased"}, {"measurement": "+dp/dt relative to the T-H group", "setting": "G-T-H vs T-H group, Example 1", "value": "markedly improved"}, {"measurement": "Cardiac output improvement over the T-H group", "setting": "G-T-H vs T-H group, Example 1", "value": "more than two-fold"}, {"measurement": "oxygen consumption relative to the T-H group", "setting": "G-T-H vs T-H group, Example 1", "value": "more than doubled"}, {"measurement": "oxygen delivery relative to the T-H group", "setting": "G-T-H vs T-H group, Example 1", "value": "more than doubled"}, {"measurement": "−dp/dt relative to the T-H group", "setting": "G-T-H vs T-H group, Example 1", "value": "markedly improved"}, {"measurement": "Cardiac output improvement over the sham group", "setting": "G-T-H vs sham group, Example 1", "value": "more than 50%"}, {"measurement": "+dp/dt", "setting": "[1]", "value": "14,400 ± 900 mm Hg/sec"}, {"measurement": "Cardiac Output", "setting": "[1]", "value": "40.5 ± 0.4", "unit": "ml/min 100 g body wt"}, {"measurement": "Heart Rate", "setting": "[1]", "value": "371 ± 15", "unit": "beat/minute"}, {"measurement": "Mean Arterial Pressure", "setting": "[1]", "value": "104 ± 3", "unit": "mm Hg"}, {"measurement": "Oxygen Consumption", "setting": "[1]", "value": "1.32 ± 0.15", "unit": "ml/min 100 g body wt"}, {"measurement": "Oxygen Delivery", "setting": "[1]", "value": "3.3 ± 0.1", "unit": "ml/min 100 g body wt"}, {"measurement": "Oxygen Extraction", "setting": "[1]", "value": "42.0 ± 5.4", "unit": "%"}, {"measurement": "Stroke volume", "setting": "[1]", "value": "109.7 ± 5.7", "unit": "μl/beat/100 g body wt"}, {"measurement": "Total Peripheral Resistance", "setting": "[1]", "value": "2.58 ± 0.10 mm Hg/ml/min/100 g body wt"}, {"measurement": "−dp/dt", "setting": "[1]", "value": "8,700 ± 600 mm Hg/sec"}, {"measurement": "Regional Blood Flow: Brain", "setting": "[2]", "value": "103 ± 11", "unit": "ml/min/100 g tissue"}, {"measurement": "Regional Blood Flow: Cardiac", "setting": "[2]", "value": "1,320 ± 170 ml/min/100 g tissue"}, {"measurement": "Regional Blood Flow: Cecum", "setting": "[2]", "value": "118 ± 29", "unit": "ml/min/100 g tissue"}, {"measurement": "Regional Blood Flow: Gastric", "setting": "[2]", "value": "78.3 ± 5.1", "unit": "ml/min/100 g tissue"}, {"measurement": "Regional Blood Flow: Hepatic Artery", "setting": "[2]", "value": "18.5 ± 6.0", "unit": "ml/min/100 g tissue"}, {"measurement": "Regional Blood Flow: Large Intestine", "setting": "[2]", "value": "101 ± 18", "unit": "ml/min/100 g tissue"}, {"measurement": "Regional Blood Flow: Lung", "setting": "[2]", "value": "74.2 ± 18.1", "unit": "ml/min/100 g tissue"}, {"measurement": "Regional Blood Flow: Mesenteric", "setting": "[2]", "value": "29.2 ± 5.0", "unit": "ml/min/100 g tissue"}, {"measurement": "Regional Blood Flow: Muscle", "setting": "[2]", "value": "6.45 ± 1.69", "unit": "ml/min/100 g tissue"}, {"measurement": "Regional Blood Flow: Pancreatic", "setting": "[2]", "value": "56 ± 4", "unit": "ml/min/100 g tissue"}, {"measurement": "Regional Blood Flow: Portal Vein", "setting": "[2]", "value": "187 ± 14", "unit": "ml/min/100 g tissue"}, {"measurement": "Regional Blood Flow: Renal", "setting": "[2]", "value": "374 ± 13", "unit": "ml/min/100 g tissue"}, {"measurement": "Regional Blood Flow: Skin", "setting": "[2]", "value": "53.9 ± 5.7", "unit": "ml/min/100 g tissue"}, {"measurement": "Regional Blood Flow: Small Intestine", "setting": "[2]", "value": "240 ± 24", "unit": "ml/min/100 g tissue"}, {"measurement": "Regional Blood Flow: Splenic", "setting": "[2]", "value": "46 ± 20", "unit": "ml/min/100 g tissue"}, {"measurement": "Regional Blood Flow: Thymus", "setting": "[2]", "value": "47.8 ± 10.5", "unit": "ml/min/100 g tissue"}, {"measurement": "Regional Blood Flow: Total Hepatic", "setting": "[2]", "value": "202 ± 20", "unit": "ml/min/100 g tissue"}]}
